#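 The compound was tested at five concentrations on cells cultured in 96-well plates, with a 48-hour exposure period. Abbreviation: GI50, concentration required for 50% inhibition of growth. Definition used: TGI = concentration required for complete inhibition of growth.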
# Tests used:
# Assay in all cases: NCI-60 cell line screen, 48 h
# A498 renal = test system: A498 renal
# EKVX NSCLC = test system: EKVX NSCLC
# HOP-92 NSCLC = test system: HOP-92 NSCLC
# HT29 colon = test system: HT29 colon
# RXF 393 renal = test system: RXF 393 renal
# SF-268 CNS = test system: SF-268 CNS
# SF-539 CNS = test system: SF-539 CNS
# SK-MEL-28 melanoma = test system: SK-MEL-28 melanoma
# U251 CNS = test system: U251 CNS
# UACC-257 melanoma = test system: UACC-257 melanoma
SMILES,TGI (A498 renal) [µM],TGI (EKVX NSCLC) [µM],TGI (HOP-92 NSCLC) [µM],TGI (HT29 colon) [µM],TGI (RXF 393 renal) [µM],TGI (SF-268 CNS) [µM],TGI (SF-539 CNS) [µM],TGI (SK-MEL-28 melanoma) [µM],TGI (U251 CNS) [µM],TGI (UACC-257 melanoma) [µM],GI50 (A498 renal) [µM],GI50 (EKVX NSCLC) [µM],GI50 (HOP-92 NSCLC) [µM],GI50 (HT29 colon) [µM],GI50 (RXF 393 renal) [µM],GI50 (SF-268 CNS) [µM],GI50 (SF-539 CNS) [µM],GI50 (SK-MEL-28 melanoma) [µM],GI50 (U251 CNS) [µM],GI50 (UACC-257 melanoma) [µM]
NC(N)=NS(=O)(=O)c1ccc(NC(=O)c2cccc3c(Nc4ccc(S(N)(=O)=O)cc4)c4ccccc4nc23)cc1,> 100,> 100,> 100,> 100,> 100,> 100,> 100,> 100,> 100,> 100,,,,,,,,,,
OB1OCc2cc(/C=C/c3cccc(C(F)(F)F)c3)ccc21,9.22,> 100,10.7,> 100,11.4,48.1,11.1,> 100,17.3,> 100,1.13,3.65,0.712,1.44,2.23,0.564,0.405,18.8,0.64,4.31
NC(=O)c1cccc(Nc2nccc(Nc3cccc(F)c3)n2)c1,16,> 25,18.1,> 25,14.6,> 25,> 25,> 25,> 25,> 25,4.3,12.3,2.66,6.98,3.72,11.7,11.3,8.71,14.3,12.2
CCN(CC)CCNC(=O)c1cn2ncnc(Oc3ccc(NC(=O)Nc4ccc(Cl)c(C(F)(F)F)c4)c(F)c3)c2c1C,3.28,3.34,3.56,2.45,3.35,3.74,2.43,2.79,3.07,3.18,1.84,1.92,1.6,0.834,1.8,1.92,1.12,1.47,1.59,1.61
CCOC(=O)c1ccc(N[C@@H]2c3cc4c(cc3C(C3=CC(=O)C(=O)C(OC)=C3)[C@H]3C(=O)OCC32)OCO4)cc1 (stereo partly specified),13,26.3,25,18.2,16.8,10.4,4.56,40.5,4.77,> 82.6,,,,,,,,,,
CCCCCCCCCCN=C(c1ccc(N(C)C)cc1)c1ccc(N(C)C)cc1,6.33,> 100,26.5,18.5,9.87,67.9,5.47,> 100,33.2,66.2,0.457,1.04,1.92,0.351,1.66,3.4,0.832,7.39,0.579,16.5
COc1cccc(/C=C2\CCC(C)(CN(C)C)C2=O)c1 (stereo unspecified),> 100,> 100,> 100,> 100,> 100,> 100,> 100,> 100,> 100,> 100,,,,,,,,,,
O=C1C=C(O)c2[nH]c(=O)ccc2C1=O,> 100,> 100,> 100,> 100,> 100,> 100,> 100,> 100,> 100,> 100,,,,,,,,,,
CC1(C)N=C(N)N=C(N)N1c1ccc(OCC(=O)Nc2ccccc2)c(Cl)c1,> 100,> 100,> 100,> 100,> 100,> 100,> 100,> 100,> 100,> 100,> 58.1,35,68.9,0.333,> 87.1,0.677,2.1,> 58.8,0.674,> 25.4
Cc1ccc2nc3c(Cl)c(C)c(=O)cc-3sc2c1,> 100,> 100,> 100,> 100,> 100,> 100,> 100,> 100,> 100,> 100,,63.3,,> 100,,43.6,50.9,> 100,45.1,78.4
COc1ccc(CC(C)C(C)Cc2ccc(OC)c(OC)c2)cc1OC (stereo unspecified),> 1400,> 1400,> 1400,> 1400,950,> 1400,> 1400,> 1400,> 1400,> 1400,> 1400,986,235,> 1400,255,> 1400,> 1400,> 1400,802,80.7
CC1=C(C(=O)Nc2ccccc2C)C(/C=C/c2ccccc2)C(C(=O)Nc2ccccc2C)=C(C)N1,> 100,> 100,> 100,> 100,> 100,> 100,> 100,> 100,> 100,> 100,,,,,,,,,,
Cc1ccccc1Nc1nc2c(s1)C(=O)c1ccccc1C2=O,39.5,21,25.1,40.7,19.3,13,12.7,27.7,8.83,12.4,,,,,,,,,,
CC(CC(=O)Nc1ccc(NC(=O)CC(C)N=NC(N)=S)cc1)N=NC(N)=S (stereo unspecified),> 100,> 100,> 100,> 100,> 100,> 100,> 100,> 100,,> 100,,,,,,,,,,
Cc1cc(Nc2nc(SCc3ccc(C(=O)Nc4ccc(F)cc4N)cc3)nn3cccc23)n[nH]1,5.61,55.9,24.3,10.1,13,> 100,17.4,51.8,> 100,32.4,0.623,0.919,3.68,0.322,0.301,1.12,0.282,2.83,0.343,3.69
OC(c1ccc(Br)cc1)(c1cccs1)C1CC1 (stereo unspecified),45.2,> 100,37.7,68,39.1,45.4,45.9,51.3,35.4,71.3,,,,,,,,,,

# — PubChem BioAssay (NCI)
